Values quoted from earlier work in patent US9820956B2, “Compositions and methods for treating metabolic disorders” (PreKUlab, Ltd., priority 2003, dated 2017).
Like-named read-outs stand apart in the source and are kept apart here.

Legend:
[1] = system: BBB transport system for basic amino acids
[2] = system: intestinal epithelia transport
[3] = system: LNAA transport system in the BBB
[4] = system: Phe transport in Caco-2 cells; settings: for % inhibition of Phe transport: 10 μM Phe, 1 mM of each competing amino acid, Caco-2 monolayers; for inhibition of Phe transport in human intestinal epithelial cells (in words): Caco-2
[5] = system: BBB transport system for acidic amino acids
[6] = absolute Km at BBB, basic amino acids, read-out: Km
[7] = apparent Km at BBB, basic aa's, read-out: Km(app)
[8] = absolute Km at BBB, neutral amino acid system, read-out: Km
[9] = apparent Km at BBB in presence of competing LNAAs, LNAA's, read-out: Km(app)

| Structure (SMILES) | Km [2] [µM] | Km [3, 8] [µM] | Km [3, 9] [µM] | % inhibition of Phe transport [4] [%] | other results |
| --- | --- | --- | --- | --- | --- |
| N=C(N)NCCC[C@H](N)C(=O)O [Arg, arginine] |  |  |  |  | Km [1, 6]: 90 µM; Km [1, 7]: 400 µM |
| CC(C)[C@H](N)C(=O)O [Val, valine] | 3000 | 630 | 2500 |  |  |
| N[C@@H](Cc1c[nH]c2ccccc12)C(=O)O [Trp, tryptophan] |  | 190 | 710 | 36 |  |
| N[C@@H](Cc1c[nH]cn1)C(=O)O [His, histidine] | 6000 |  |  | 33 | Km [1, 6]: 280 µM; Km [1, 7]: 1100 µM |
| C[C@@H](O)[C@H](N)C(=O)O [Threo] |  | 730 | 3000 |  |  |
| CSCC[C@H](N)C(=O)O [Met, methionine] | 5000 | 190 | 770 |  |  |
| NCCCC[C@H](N)C(=O)O [Lys, lysine] |  |  |  | 50 | inhibition of Phe transport in human intestinal epithelial cells (in words) [4]: strong inhibition; Km [1, 6]: 100 µM; Km [1, 7]: 250 µM |
| N[C@@H](Cc1ccccc1)C(=O)O [Phe, phenylalanine] | 1000 | 120 | 450 |  | Km ([4]; Caco-2, measured by Hidalgo, read-out: Km for Phe at the intestinal cell transport system): 560 µM |
| CC(C)C[C@H](N)C(=O)O [Leu, leucine] | 2000 | 150 | 530 | 55 | inhibition of Phe transport in human intestinal epithelial cells (in words) [4]: strong inhibitor |
| N[C@@H](Cc1ccc(O)cc1)C(=O)O [Tyr, tyrosine] |  | 160 | 580 | 45 |  |
| N[C@@H](CCC(=O)O)C(=O)O [Glu] |  |  |  |  | Km [5]: 40 µM |
| CC[C@H](C)[C@H](N)C(=O)O [iLeu, isoleucine] |  | 330 | 1300 |  |  |
